{"source": "paper PMC4654502", "about": "“Early Gelatinase Activity Is Not a Determinant of Long-Term Recovery after Traumatic Brain Injury in the Immature Mouse” (PLoS ONE, 2015)", "key": {"MMP-2": {"tested_on": "MMP-2", "assay": "Inhibition constant for MMP-2", "assay_type": "biochemical", "settings": "more potent than the parent compound"}, "gelatinase activity": {"tested_on": "gelatinase activity", "assay": "In situ zymography (DQ-gelatin) of brain sections after TBI at p21", "assay_type": "in vivo, mouse", "settings": "25 mg/kg s.c. at 2, 4, 24 and 48 h post-injury; brains 1 h after last injection", "protocol": "(§1) The treatment regime was based upon several considerations. […] Thirdly, we limited treatment to a period of 48 h post-injury in order to minimize potential off-target effects on ongoing brain development processes at this time, given the known roles that these gelatinases play in postnatal synaptic maturation. For acute studies (gelatin zymography and histology) animals were euthanized at 4 hours and for in situ zymography, they were euthanized 1 hour after the last injection. For long-term studies (behavioral and cognitive assessments and histology) animals were euthanized at ~2 months post-injury. Euthanasia was by overdose with 2.5% Avertin i.p. followed by decapitation or cardiac transperfusion as described below.\nOne hour after the last injection, brains were collected and embedded in optimal cutting temperature medium (OCT, Tissue-Tek, CA). The tissue blocks were cryosectioned at 10μm thickness and subjected to in-situ zymography, as described by Oh et al.. Briefly, the sectioned tissues were stained with DQ-gelatin (Molecular Probes, Inc., OR, USA) to detect gelatinase activity, followed by incubation with DAPI solution to detect nuclei. […]"}, "[1]": {"tested_on": "controlled cortical impact TBI at p21", "assay": "Open field test at adulthood after TBI at p21", "assay_type": "in vivo, male C57Bl/6J mice", "settings": "25 mg/kg s.c. at 2, 4, 24, 48 h post-injury; tested ~2 months post-injury", "protocol": "(§2) The controlled cortical impact model of TBI was used as previously described. TBI to the p21 mouse approximates a toddler-aged child, based upon the structural, biochemical and behavioral characteristics of this age. Pups were anaesthetized with 1.25% 2,2,2-tribromoethanol (Avertin; Sigma-Aldrich, St. Louis, MO) in isotonic saline (i.p. bolus at 0.02 mL/g body weight). After craniotomy, mice were subjected to a controlled cortical impact at 4.5 m/s velocity and 1.73 mm depth of penetration, for a sustained depression of 150 ms, using a 3.0 mm convex impactor tip. Mice were maintained on a water-circulating heating pad throughout surgery and recovery. Following impact, the scalp was closed with sutures and each animal administered 0.5 ml of isotonic saline subcutaneously (s.c.) to prevent post-operative dehydration. Sham-operated mice underwent identical surgical procedures, including craniotomy, without receiving the cortical impact. All mice were closely monitored for 1–2 hours post-surgery until return of the righting reflex and full mobilization. Mice were then returned to group-housing, and weighed post-surgery at days 1, 3, and weekly thereafter till the end of the study.\nThe treatment regime was based upon several considerations. […]\nExploratory behaviors were assessed over a 10 min session in an automated open field arena (40.6 cm x 40.6 cm; Kinder Scientific, Poway, CA). […]"}, "[2]": {"tested_on": "controlled cortical impact TBI at p21", "assay": "Stereological volumes and hippocampal cell counts at adulthood after TBI at p21", "assay_type": "in vivo, male C57Bl/6J mice", "settings": "~2 months post-injury", "protocol": "as §2, §1\nUpon completion of behavioral and cognitive assessments at ~ 2 months post-injury, anesthetized mice were perfused transcardially with ice-cold saline followed by 4% paraformaldehyde in 0.1M PBS. Collected brains were post-fixed overnight in 4% PFA and then transferred into a 30% sucrose solution for 72 h before being embedded in Neg50^TM (Richard-Allan Scientific, Thermo Fisher Scientific, Fremont, CA). Serial coronal sections spanning the entire cortex were cut at 20 μm or 40 μm (for time points of 48 h or 2 months post-injury, respectively).\nAn estimation of intact cortical and hippocampal volumes was performed on 40 μm coronal sections stained with cresyl violet, collected at ~ 2 months post-injury. The unbiased Cavalieri method was performed with StereoInvestigator software (MicroBrightField v10.21.1, Williston, VT, USA), using a Nikon E600W microscope configured with a motorized stage, MAC 5000 controller and Retiga 2000R color digital camera (QImaging, Surrey, BC, Canada). Spanning Bregma 1.5 to -3.8 mm, 12–16 sections containing cortex and 7–10 sections containing hippocampus were assessed per brain, using a sampling interval of 8 and a grid size of either 200 μm or 75 μm for cortex and hippocampus, respectively. Measurements were confined to the dorsal hemispheres as previously described using a 2x objective for the cortex and 4x for the hippocampus. The Gundersen mean coefficient of error (m = 1) was maintained ≤0.03 for cortical volume estimates and ≤0.08 for the hippocampus and dentate gyrus (DG). Group means are expressed as estimated volume (mm³). Certain sections were excluded from stereological analyses due to poor tissue integrity, folding or incomplete staining. In these cases, the section was deemed to be ‘missing’ and estimation for this section was calculated from the StereoInvestigator program based upon the adjacent sections. This was permitted for a maximum of 2 non-adjacent sections per brain. […]"}, "MMP-9": {"target": "MMP-9", "settings": "cited from earlier work"}}}
{"smiles": "O=S(=O)(CC1CS1)c1ccc(Oc2ccc(O)cc2)cc1", "note": "(stereo not drawn) [p-OH SB-3CT]", "values": [{"measurement": "potency at inhibiting MMP-2 relative to parent compound SB-3CT", "setting": "MMP-2", "result": 5, "unit": "fold"}, {"measurement": "gelatinase activity post-injury (in situ zymography) compared to vehicle control", "setting": "gelatinase activity", "result": "attenuated gelatinase activity"}, {"measurement": "injury-induced hyperactivity (total distance traveled, open field)", "setting": "[1]", "result": "did not ameliorate this hyperactivity"}, {"measurement": "percentage time spent in the center of the open field (anxiety-like behavior)", "setting": "[1]", "result": "neither TBI nor p-OH SB-3CT treatment affected this measure"}, {"measurement": "contralateral cortical volume", "setting": "[2]; TBI groups or sham groups compared", "result": "did not alter contralateral cortical volumes"}, {"measurement": "ipsilateral hippocampal volume, TBI mice vs vehicle-treated", "setting": "[2]; TBI, p = 0.0835", "result": "reduced hippocampal volumes, that did not reach statistical significance"}, {"measurement": "contralateral dentate gyrus volume", "setting": "[2]; sham and TBI mice", "result": "did not affect contralateral DG volume"}, {"measurement": "contralateral hippocampus volume", "setting": "[2]; sham or TBI brains", "result": "did not affect the contralateral hippocampus volume"}, {"measurement": "ipsilateral dentate gyrus volume", "setting": "[2]; sham or TBI groups", "result": "no effect of drug treatment"}, {"measurement": "ipsilateral cortical volume", "setting": "[2]; sham or injured animals", "result": "did not influence ipsilateral cortical volumes"}, {"measurement": "ipsilateral hippocampal volume, sham mice vs vehicle-treated sham", "setting": "[2]; sham, p = 0.0669", "result": "tended to exhibit larger hippocampal volumes"}, {"measurement": "Ki", "setting": "MMP-9", "result": "160 ± 80", "unit": "nM"}]}
